In patent US8722681B2, “N-sulfonyl thiazolylpiperazine derivatives and related N-sulfonyl heterocyclic derivatives for the treatment of neuro degenerative diseases” (NV reMYND, priority 2007, dated 2014):

How the values were obtained:
[1] = tested on: M17-SYNwt cells; type: cell-based, human; details: M17-SYNwt cells treated with paraquat; not seen in M17 cells; FIG. 1
Description: (§1) Due to the high levels of α-synuclein M17-SYNwt cells are exquisitely sensitivity to paraquat, a well-known risk factor of synuclein-dependent neuronal degeneration. In degenerated or dead cells lactate dehydrogenase (LDH) is leaked out of the cells into the extracellular environment due to a loss of plasma-membrane integrity. This principle was used to determine cytotoxicity by quantifying the level of leaked LDH into the growth medium.
(§2) The detailed method for determining α-synuclein cytotoxicity was as follows: From appropriate precultures of M17 and M17-SYN cells were seeded at 50000 cells/cm^2 in Optimem Reduced Serum without phenol red (InVitrogen, Cat. 31985-047) supplemented with 5% fetal calf serum, 1 mM sodium pyruvate, 1×non-essential amino acids, 500 μg/ml G418 0.5×antibiotic/antimycotic. After 3 hours of incubation at 37° C./5% CO2 paraquat was added to the cells (final concentration of 32 mM), together with the test compound and the cells were further incubated for 40 hours. Subsequently, LDH activity was determined using Promega Cytotox 96 Non-Radioactive cytotoxicity assay, (Cat. G1780) according the supplier's instructions.

[2] = tested on: M17-SYNwt cells; test: α-synuclein cytotoxicity assay (LDH leakage from paraquat-treated M17-SYNwt cells); type: cell-based, human; details: for EC50: M17-SYNwt cells, paraquat 32 mM, 40 hours, LDH activity; for % inh. (percentage inhibition) / % I (percentage inhibition): inhibition of synuclein toxicity at most effective concentration relative to untreated paraquat cells
Description: An α-synuclein expression plasmid was constructed by sub-cloning the NcoI/XhoI fragment from 212T-SYN(WT) (Griffioen et al., Biochem Biophys Acta (2006) 1762(3):312-318) containing the cDNA of human wild type α-synuclein correspondingly into a standard mammalian expression vector pcDNA3.1 resulting in plasmid pcDNA3.1-SYNwt. Plasmid pcDNA3.1 and pcDNA3.1-SYNwt were transfected to human neuroblastoma cells (ATCC No. CRL-2267) and independent clonal lines with the plasmids stably integrated into the genome were selected. […] Over-expression of α-synuclein in M17-SYNwt cell lines was confirmed by Western analysis.
as §1, §2
This α-synuclein expressing neuroblastoma cells made it possible to assess the ability of novel compounds to counteract α-synuclein cytotoxicity. […] Since this method monitors leaked LDH from degenerated or dead cells only non-toxic compounds will be identified as active inhibitors of α-synuclein-mediated cytotoxicity. Lack of toxicity is an important characteristic for compounds to be used as a medicament to patients in need. A compound was considered to be active in this test when it inhibits α-synuclein cytotoxicity by more than 25% relative to untreated M17-SYNwt cells at a concentration of 20 μg/mL or lower. In the experiments, the control group consisted of M17-SYNwt cells treated with DMSO, the untreated paraquat group consisted of M17-SYNwt cells treated with paraquat and DMSO, and the treated paraquat group consisted of M17-SYNwt cells treated with paraquat and the test compound dissolved in DMSO.
Percent inhibition was calculated as the synuclein toxicity inhibition by the compound in treated paraquat cells, relative to the synuclein cytotoxicity in untreated paraquat cells.
The compounds from table 1 were screened for activity using the α-synuclein cytotoxicity assay as described above. Dose responses were carried out on all compounds found to be active (10 point curves in duplicate).

Compound	EC50 ([2]; Homo sapiens, Table 2)	% inh. (percentage inhibition) ([2]; Table 2)	other results
C[n+]1ccc(-c2cc[n+](C)cc2)cc1 [paraquat]			level of LDH leaked into the medium [1]: relatively high level
COc1ccc(OC)c(S(=O)(=O)N2CCN(c3nc(-c4ccccc4)cs3)CC2)c1 [Compound 36, 1-(2,5-dimethoxyphenylsulfonyl)-4-(4-phenylthiazol-2-yl)piperazine]	950 nM	121%	
O=[N+]([O-])c1cccc(-c2csc(N3CCN(S(=O)(=O)c4ccc5c(c4)OCCO5)CC3)n2)c1 [Compound 72, 1-(2,3-dihydrobenzo[b][1,4]dioxin-6-ylsulfonyl)-4-(4-(3-nitrophenyl)thiazol-2-yl)piperazine]	23500 nM	85%	
COc1ccc(S(=O)(=O)N2CCN(c3nc(Cc4ccc5c(c4)OCO5)cs3)CC2)cc1 [Compound 18, 1-(4-(benzo[d][1,3]dioxol-5-ylmethyl)thiazol-2-yl)-4-(4-methoxyphenylsulfonyl)piperazine]	22.8 nM	19%	
O=S(=O)(C1CCCCC1Br)N1CCN(c2nc(-c3ccc(F)cc3)cs2)CC1 (stereo not shown) [Compound 8]			EC50 ([2]; Homo sapiens, Table 1): 568 nM; % I (percentage inhibition) ([2]; Table 1): 88%
COc1ccc(Cc2csc(N3CCN(S(=O)(=O)c4ccc(OC)cc4)CC3)n2)cc1 [Compound 14, 1-(4-(4-methoxybenzyl)thiazol-2-yl)-4-(4-methoxyphenylsulfonyl)piperazine]	46.6 nM	90%	
O=S(=O)(c1ccc(Cl)cc1)N1CCN(c2nc(-c3ccc(F)cc3)cs2)CC1 [Compound 6]			EC50 ([2]; Homo sapiens, Table 1): 300 nM; % I (percentage inhibition) ([2]; Table 1): 88%
COc1ccc(S(=O)(=O)N2CCN(c3nc(Cc4cccc(F)c4)cs3)CC2)cc1 [Compound 13, 1-(4-(3-fluorobenzyl)thiazol-2-yl)-4-(4-methoxyphenylsulfonyl)piperazine]	11.5 nM	92%	
O=S(=O)(c1ccc2ccccc2c1)N1CCN(c2nc(-c3ccc(Cl)cc3)cs2)CC1 [Compound 75, 1-(4-(4-chlorophenyl)thiazol-2-yl)-4-(naphthalen-2-ylsulfonyl)piperazine]	870 nM	84%	
COc1cccc(Cc2csc(N3CCN(S(=O)(=O)c4cccc(OC)c4)CC3)n2)c1 [Compound 17, 1-(4-(3-methoxybenzyl)thiazol-2-yl)-4-(3-methoxyphenylsulfonyl)piperazine]	4360 nM	130%	
COc1ccc(S(=O)(=O)N2CCN(c3nc(Cc4cccc(C#N)c4)cs3)CC2)cc1 [Compound 12, 3-((2-(4-(4-methoxyphenylsulfonyl)piperazin-1-yl)thiazol-4-yl)methyl)benzonitrile]	3.2 nM	66%	
COc1ccc(OC)c(S(=O)(=O)N2CCN(c3nc(-c4ccc(Cl)cc4)cs3)CC2)c1 [Compound 37, 1-(4-(4-chlorophenyl)thiazol-2-yl)-4-(2,5-dimethoxyphenylsulfonyl)piperazine]	1290 nM	74%	
O=S(=O)(c1ccc(F)cc1)N1CCN(c2nc(-c3ccc(F)cc3)cs2)CC1 [Compound 9]			EC50 ([2]; Homo sapiens, Table 1): 833 nM; % I (percentage inhibition) ([2]; Table 1): 81%
COc1ccc(-c2csc(N3CCN(S(=O)(=O)c4cc(OC)ccc4OC)CC3)n2)cc1 [Compound 39, 1-(2,5-dimethoxyphenylsulfonyl)-4-(4-(4-methoxyphenyl)thiazol-2-yl)piperazine]	6750 nM	107%	
COc1cccc(-c2csc(N3CCN(S(=O)(=O)c4ccc(F)cc4)CC3)n2)c1 [Compound 35, 1-(4-fluorophenylsulfonyl)-4-(4-(3-methoxyphenyl)thiazol-2-yl)piperazine]		90%	EC50 ([2]; Table 2): 216 nM
COc1cccc(Cc2csc(N3CCN(S(=O)(=O)c4ccccc4OC)CC3)n2)c1 [Compound 16, 1-(4-(3-methoxybenzyl)thiazol-2-yl)-4-(2-methoxyphenylsulfonyl)piperazine]	3590 nM	76%	
COc1cccc(Cc2csc(N3CCN(S(=O)(=O)c4ccc(C#N)cc4)CC3)n2)c1 [Compound 29, 4-(4-(4-(3-methoxybenzyl)thiazol-2-yl)piperazin-1-ylsulfonyl)benzonitrile]	1270 nM	42%	
Cc1ccc(S(=O)(=O)N2CCN(c3nc(-c4cccs4)cs3)CC2)cc1 [Compound 78, 1-(4-(thiophen-2-yl)thiazol-2-yl)-4-tosylpiperazine]	316 nM	84%	
Cc1ccc(S(=O)(=O)N2CCN(c3nc(-c4ccc(F)cc4)cs3)CC2)cc1 [Compound 2]			EC50 ([2]; Homo sapiens, Table 1): 160 nM; % I (percentage inhibition) ([2]; Table 1): 70%
COc1ccc(S(=O)(=O)N2CCN(Cc3nc(Cc4cccc(OC)c4)cs3)CC2)cc1 [Compound 32, 1-((4-(3-methoxybenzyl)thiazol-2-yl)methyl)-4-(4-methoxyphenylsulfonyl)piperazine]	159 nM	95%	
COc1cccc(Cc2csc(N3CCN(S(=O)(=O)c4cn(C)cn4)CC3)n2)c1 [Compound 26, 1-(4-(3-methoxybenzyl)thiazol-2-yl)-4-(1-methyl-1H-imidazol-4-ylsulfonyl)piperazine]	870 nM	87%	
COc1ccc(S(=O)(=O)N2CCN(c3nc(Cc4ccccc4OC)cs3)CC2)cc1 [Compound 15, 1-(4-(2-methoxybenzyl)thiazol-2-yl)-4-(4-methoxyphenylsulfonyl)piperazine]	17 nM	71%	
